Measured values as given in US8093244B2, “Heteroaryl urea derivatives useful for inhibiting CHK1” (ICOS Corporation, priority 2005, dated 2012).

Key:
[1] = test system: xenograft tumors of colon tumor cell lines; experiment: Xenograft animal tumor models (Example 11); type: in vivo, Balb/c (nu/nu) mice; details: 160 mg/kg intraperitoneal
Excerpt: To test the ability of the Chk1 inhibitors of the invention to enhance the killing of tumors by DNA damaging agents in mice, xenograft tumor models using colon tumor cell lines are established. 5-fluorouracil (5-FU) or gemcitabine can be used as DNA damaging agents. HT29 and Colo205 (human colon carcinoma) and H460 and Calu-6 (nonsmall cell carcinoma) cells can be used to propagate xenograft tumors in 6-8 week old female […] Balb/c (nu/nu) mice. Mice are maintained in a laminar airflow cabinet under pathogen-free conditions and fed sterile food and water ad libitum. Cell lines are grown to subconfluence in RPMI 1640 media supplemented with 10% FBS, 100 U/mL penicillin, 100 μg/mL streptomycin, and 1.5 mM L-glutamine in a 5% CO2 humidified environment. Single cell suspensions are prepared in CMF-PBS, and cell concentration adjusted to 1×10^8 cells/mL. Mice are inoculated subcutaneously (s.c.) on the right flank or right leg with a total of 1×10^7 cells (100 μL). Mice are randomized (5-15 mice/group) into four treatment groups and used when tumors reach a volume of […] (usually 7-11 days post-inoculation). Tumors are measured with vernier calipers and tumor volumes are estimated using the empirically derived formula: tumor volume (cm^3)=tumor length (cm)×tumor width (cm)×tumor depth (cm)/3.3. […] Tumor size is monitored every other day for the duration of the experiment.

Chk1 [2] = experiment: Western blot of Chk1 phosphorylation at serine 296 in HT29 cells (Example 10); type: cell-based, human; details: gemcitabine 20 μM for two h, 22 additional h
Method: Phosphorylation at this site is not inhibited by wortmannin, which inhibits Atm and Atr. Therefore, the phosphorylation of serine 296 is distinct from phosphorylation at serines 317 and 345. […] Therefore, this approach can be used to monitor Chk1 activity in tumors in response to Chk1 activators. Further, this approach can be used to measure inhibition of Chk1 activation by Chk1 inhibitors.
Thus, HT 29 cells are treated with 20 μM gemcitabine for two h. The gemcitabine is washed out of the cell growth media and cells are incubated for 22 additional h. Protein lysates are prepared and separated by an SDS-polyacrylamide gel electrophoresis. Proteins are transferred to polyvinylidene fluoride (PVDF) membranes and probed with antisera (Cell Signalling) specific for phosphorlyated serine 296 (Cell Signalling). […] Further, HT29 cells treated with selective Chk1 inhibitors for 15 min show no serine 296 phosphorylation.

Chk1 [3] = experiment: Western blot of Chk1 phosphorylation at serines 317 and 345 in HT29 cells (Example 9); type: cell-based, human; details: 20 μM for two h, 22 additional h
Excerpt: To determine whether an agent is a Chk1 activator, the phosphorylation state of Chk1 can be measured using phospho-specific antibodies to specific phosphorylation sites on Chk1. […] Liu et al., Genes Dev. 14:1448-1459, 2000; Zhao et al., Mol. Cell Biol. 21:4129-4139, 2001; Lopez-Girona et al., Proc. Natl. Acad. Sci. U.S.A. 98:11289-11294, 2001; Guo et al., Genes Dev. 14:2745-2756, 2000; Gatei et al., J. Biol. Chem. 278:14806-14811, 2003; Ng et al., J Biol Chem. 279 (10):8808-19, 2004; Wang et al., Natl Acad Sci USA. 100(26):15387-92, 2003; Stojic et al., Genes Dev. 18(11):1331-44, 2004. These serine sites are phosphorylated by upstream checkpoint kinases, Atm and Atr. Liu et al., Genes Dev. 14:1448-1459, 2000; Zhao et al. Mol. Cell Biol., 21:4129-4139, 2001).
The phosphorylation of these sites in response to a candidate Chk1 activator can be monitored by Western blot or immunohistochemistry of tumor cells. […] HT29 cells are treated with 20 μM gemcitabine for two h. The gemcitabine is washed out of the cell growth media and cells are incubated for 22 additional h. Protein lysates are prepared and separated by an SDS-polyacrylamide gel electrophoresis. Proteins are transferred to PVDF membranes and probed with antisera (Cell Signalling) specific for either phosphorylated serine 317 or 345 (Cell Signalling).

Structure (SMILES)	tumor growth [1]	phosphorylation of Chk1 serine 296 (Chk1 [2])	phosphorylation of Chk1 serines 317 and 345 (Chk1 [3])
Nc1ccn([C@@H]2O[C@H](CO)[C@@H](O)C2(F)F)c(=O)n1 [gemcitabine, 2′,2′-difluoro-2′-deoxycytidine]	A delay in tumor growth is observed	results in the phosphorylation of serine 296	results in the phosphorylation of both serines 317 and 345
COC[C@H]1OC(=O)c2coc3c2[C@@]1(C)C1=C(C3=O)[C@@H]2CCC(=O)[C@@]2(C)C[C@H]1OC(C)=O [wortmannin]	–	not inhibited	–
